Assay results reported in patent US5550139A, “Serine protease inhibitors” (The Wichita State University, priority 1994, dated 1996).
“And” between values parts separate entries of the source, which are not always exact repeats. Equal values may be shown once.

Tests used:
[1] = tested on: neutrophil diapedesis (peritonitis); experiment: Inhibition of neutrophil diapedesis after experimentally induced (starch) peritonitis; type: in vivo, rat; conditions: for Abdominal Lavage Cell Distribution, Lymphocytes / Abdominal Lavage Cell Distribution, Macrophages Monocytes / Abdominal Lavage Cell Distribution, Neutrophils: 4 hours; for reduction of peritonitis induced neutrophil diapedesis: rat
Method: (§1) Each compound (A-D) was individually injected into the tail vein of a rat in a single dose (8 mg/kg). After injection, peritonitis was induced in the rat by an IP (intraperitoneal) injection of 1 ml of a 0.1% soluble starch solution. After 4 hours, the peritoneal cavity was lavaged with saline in order to determine the number and type of cells responding to peritonitis. Cell numbers were determined by a Coulter counter and cell type (e.g. lymphocytes, neutrophils, macrophages and monocytes) by standard Cytospin and Giemsa staining. Cell number and type was evaluated after IP injection of saline (negative control, no inflammation), starch (positive control, inflammation) or starch with IV injection of an inhibitor (experimental, inflammation). Inhibitors were dissolved in DMSO prior to administration.

neutrophil elastase = experiment: Elastase activity and cell number in peripheral blood neutrophils after administration to rats; type: in vivo; conditions: rat, 8 mg/kg twice daily i.v. for three days; for Elastase Activity / Elastase Activity Rate/10^6 PMN: peripheral blood neutrophils; for Elastase Activity / Elastase Activity Rate/10^6 PMN / PMN / Total WBC: per animal, 8 mg/kg; for effect on elastase activity in circulating neutrophils (in words): vs vehicle
Method: (§2) Inhibitor A or B were each injected twice daily into the tail vein of a rat (8 mg/kg) over a period of three days. Inflammation was not induced in these rats. […] WBC=white blood cells; PMN=polymorphonuclear leukocytes; The elastase assay has been disclosed above.

[2] = tested on: peripheral blood neutrophils and lymphocytes; experiment: Peripheral blood cell distribution after administration to rats without inflammation; type: in vivo; conditions: rat, 8 mg/kg twice daily for three days; for Peripheral Blood Cell Distribution, Lymphocytes / Peripheral Blood Cell Distribution, Neutrophils / effect on number of neutrophils in peripheral circulation (in words): no inflammation; for Peripheral Blood Cell Distribution, Lymphocytes / Peripheral Blood Cell Distribution, Neutrophils: per animal, 8 mg/kg; for effect on number of neutrophils in peripheral circulation (in words): vs vehicle
Method: Compound A or Compound B were each administered twice daily for three days at a dose of 8 mg/kg. Inflammation was not induced in these rats. […] However, substitution of the aspirin moiety with a fluorine atom, as found in Compound B, prevents an increase in neutrophil cell number.

rat = experiment: Overt toxicity in injected rats; type: in vivo; conditions: rat, 8 mg/kg twice daily i.v. for three days
Method: as §2, §1

[3] = Experiment 1, starch, 8 mg/kg i.v. single dose
[4] = Experiment 2, saline (no inflammation) + drug
[5] = Experiment 2, starch, 8 mg/kg i.v. single dose

## CC(=O)Oc1ccccc1C(=O)OCN1C(=O)c2ccccc2S1(=O)=O [Drug A]
[1]; [3]
  Total Number of Cells Lavaged at 4 Hours, Lymphocytes: 7.0 × 10^6
  Total Number of Cells Lavaged at 4 Hours, Macrophages Monocytes: 7.6 × 10^6
  Total Number of Cells Lavaged at 4 Hours, Neutrophils: 11.0 × 10^6
  Total Number of Cells Lavaged at 4 Hours, Total Cells: 25 × 10^6
  Abdominal Lavage Cell Distribution, Lymphocytes: 28%
  Abdominal Lavage Cell Distribution, Macrophages Monocytes: 38%
  Abdominal Lavage Cell Distribution, Neutrophils: 44%
[1]; 8 mg/kg i.v. single dose
  reduction of peritonitis induced neutrophil diapedesis: more than 50%
Neutrophil elastase
  Elastase Activity: 0.55 ΔOD/min/ml and 0.70 ΔOD/min/ml
  Elastase Activity Rate/10^6 PMN: 0.014 and 0.015
  entry into neutrophils in vivo (in words): do not enter neutrophils in vivo
  inactivation of neutrophil intracellular proteinase (in words): fails to inactivate neutrophil intracellular proteinase
  PMN: 41.4 × 10^6 and 45.7 × 10^6
  Total WBC: 46.0 × 10^6 and 55.0 × 10^6
  effect on elastase activity in circulating neutrophils (in words): did not reduce elastase activity in circulating neutrophils
[2]
  morphology of circulating cells (in words): most of the circulating cells are morphologically mature
  Peripheral Blood Cell Distribution, Lymphocytes: 10% and 17%
  Peripheral Blood Cell Distribution, Neutrophils: 90% and 83%
  effect on number of neutrophils in peripheral circulation (in words): caused an increase in the number of neutrophils into the peripheral circulation
rat
  overt signs of toxicity: no overt signs of toxicity

## O=C1c2ccccc2S(=O)(=O)N1CF [Drug B]
[1]; [3]
  Total Number of Cells Lavaged at 4 Hours, Lymphocytes: 8.1 × 10^6
  Total Number of Cells Lavaged at 4 Hours, Macrophages Monocytes: 7.8 × 10^6
  Total Number of Cells Lavaged at 4 Hours, Neutrophils: 10.1 × 10^6
  Total Number of Cells Lavaged at 4 Hours, Total Cells: 26 × 10^6
  Abdominal Lavage Cell Distribution, Lymphocytes: 31%
  Abdominal Lavage Cell Distribution, Macrophages Monocytes: 30%
  Abdominal Lavage Cell Distribution, Neutrophils: 39%
[1]; [4]
  Total Number of Cells Lavaged at 4 Hours, Lymphocytes: 2.6 × 10^6
  Total Number of Cells Lavaged at 4 Hours, Macrophages Monocytes: 14.5 × 10^6
  Total Number of Cells Lavaged at 4 Hours, Neutrophils: 4.8 × 10^6
  Total Number of Cells Lavaged at 4 Hours, Total Cells: 22 × 10^6
  Abdominal Lavage Cell Distribution, Lymphocytes: 12%
  Abdominal Lavage Cell Distribution, Macrophages Monocytes: 66%
  Abdominal Lavage Cell Distribution, Neutrophils: 22%
[1]; [5]
  Total Number of Cells Lavaged at 4 Hours, Lymphocytes: 9.9 × 10^6
  Total Number of Cells Lavaged at 4 Hours, Macrophages Monocytes: 9.6 × 10^6
  Total Number of Cells Lavaged at 4 Hours, Neutrophils: 12.5 × 10^6
  Total Number of Cells Lavaged at 4 Hours, Total Cells: 32 × 10^6
  Abdominal Lavage Cell Distribution, Lymphocytes: 31%
  Abdominal Lavage Cell Distribution, Macrophages Monocytes: 30%
  Abdominal Lavage Cell Distribution, Neutrophils: 39%
[1]; 8 mg/kg i.v. single dose
  reduction of peritonitis induced neutrophil diapedesis: more than 50%
Neutrophil elastase
  Elastase Activity: 0.125 ΔOD/min/ml and 0.05 ΔOD/min/ml
  Elastase Activity Rate/10^6 PMN: 0.0154 and 0.0159
  entry into neutrophils in vivo (in words): do not enter neutrophils in vivo
  inactivation of neutrophil intracellular proteinase (in words): fails to inactivate neutrophil intracellular proteinase
  PMN: 8.14 × 10^6 and 3.15 × 10^6
  Total WBC: 22.0 × 10^6 and 15.0 × 10^6
  effect on elastase activity in circulating neutrophils (in words): did not reduce elastase activity in circulating neutrophils
[2]
  Peripheral Blood Cell Distribution, Lymphocytes: 63% and 79%
  Peripheral Blood Cell Distribution, Neutrophils: 37% and 21%
  effect on number of neutrophils in peripheral circulation (in words): did not cause an increase in neutrophil number
rat
  overt signs of toxicity: no overt signs of toxicity
